The text below walks through data of US4803266A, “3-Oxoalkylidene-2-azetidinone derivatives” (Taisho Pharmaceutical Co., Ltd., priority 1986, dated 1989).

In experiment [1] the test system is blood platelet aggregation. As to the kind of experiment: Blood platelet aggregation inhibition in vitro in rabbit PRP, collagen induced. Type of experiment: cell-based, male, New Zealand strain house rabbit. As to conditions: Oryctolagus cuniculus, collagen final concentration 5 μg/ml, 37° C., 3 minutes preincubation, 50% inhibition of maximum aggregation rate. As to the method: (§1) Citrated blood (one volume of 3.2% sodium citrate; 9 volumes of blood) was collected from carotid artery of male, New Zealand strain house rabbit, centrifuged at 150 g for 15 minutes to give platelet rich plasma (PRP) as a supernatant, and the remaining blood was centrifuged at 1500 g for 10 minutes to give platelet poor plasma (PPP) as a supernatant. The platelet count of PRP was adjusted to 50-60×10^4 /μl by dilution of PPP. Blood platelet aggregation was carried out according to the method of Born [Born, G. V. R., Nature, 194, 927 (1962)]. Namely, 25 μl of the test drug, (all the test drugs were dissolved in dimethyl sulfoxide and adjusted to the desired concentration with physiological saline solution), was added to 250 μl of PRP, and the mixture was incubated at 37° C. for 3 minutes. 25 μl of the aggregation inducing substance [adenosine diphosphate (ADP); final concentration 5 μM or collagen: final concentration 5 μg/ml] was added, the mixture was measured for 5 minutes by blood platelet aggregation ability measurement apparatus (Aggricoda TM-PA-3210, Kyoto Dai-ichi Kagaku) to obtain the maximum aggregation rate, and there was calculated the concentration of the test drug (ICP50) which brings about 50% inhibition to the maximum aggregation rate obtained by adding the aggregation inducing substance to PRP containing the solvent only.
(§2) The compound numbers in Table 1 correspond to those in the Examples described below.

For experiment [2], the system named is blood platelet aggregation. Put plainly: Blood platelet aggregation inhibition in vitro in rabbit PRP, ADP induced. It is filed as cell-based, male, New Zealand strain house rabbit. The settings on record: Oryctolagus cuniculus, ADP final concentration 5 μM, 37° C., 3 minutes preincubation, 50% inhibition of maximum aggregation rate. As to the method:
as §1, §2

The IC50 is the concentration that gives 50% inhibition. High values mean weaker potency in that assay, low ones greater potency in that assay. Take `O=C(/C=C1/C(=O)N(Cc2ccccc2C(F)(F)F)C1c1ccccc1)c1ccc([N+](=O)[O-])cc1` (stereo not shown) [Compound 95]: the IC50 in experiment [1] was found to be 2.5 µM; in experiment [2], 15.4 µM.

As for `O=C(/C=C1/C(=O)N(c2ccccc2)C1c1ccccc1)c1ccc([N+](=O)[O-])cc1` (stereo not shown) [Compound 12], the IC50 in experiment [1] worked out at 4.7 µM; in experiment [2], 5.6 µM.

For the compound `COc1ccc(C(=O)/C=C2/C(=O)N(c3ccccc3C)C2c2ccccc2)cc1` (stereo not shown) [Compound 16], the IC50 in experiment [1] worked out at 4.1 µM; in experiment [2], 12.5 µM.

On to `O=C(/C=C1/C(=O)N(c2ccccc2)C1c1ccccc1)c1ccc(F)cc1` (stereo not shown) [Compound 8], for which the IC50 worked out at 13.6 µM in experiment [1] and 9.2 µM in experiment [2].

For `COc1ccc(Cc2nccc3cc(OC)c(OC)cc23)cc1OC` [papaverin, reference compound], the IC50 in experiment [1] and in experiment [2] was > 100 µM each time.

On to `O=C(/C=C1/C(=O)N(c2ccccc2)C1c1ccccc1)c1ccccc1` (stereo not shown) [Compound 4], for which the IC50 is 16 µM in experiment [1] and 13 µM in experiment [2].

With `Cc1ccc(CN2C(=O)/C(=C/C(=O)c3ccc([N+](=O)[O-])cc3)C2c2ccccc2)cc1` (stereo not shown) [Compound 91], the IC50 in experiment [1] is 6.7 µM; in experiment [2], 9.7 µM.

As for `O=C(/C=C1/C(=O)N(c2ccccc2F)C1c1ccccc1)c1ccc([N+](=O)[O-])cc1` (stereo not shown) [Compound 34], the IC50 turned out to be 6.6 µM in experiment [1] and 8.2 µM in experiment [2].

`O=C(/C=C1/C(=O)N(Cc2ccc(Cl)cc2)C1c1ccccc1)c1ccc([N+](=O)[O-])cc1` (stereo not shown) [Compound 98]: the IC50 in experiment [1] was 8.8 µM; in experiment [2], 11.2 µM.

On to `Cc1ccccc1N1C(=O)/C(=C/C(=O)c2ccc([N+](=O)[O-])cc2)C1c1ccccc1` (stereo not shown) [Compound 18], for which the IC50 in experiment [1] stood at 3.2 µM; in experiment [2], 6.6 µM.

As for `Cc1ccccc1N1C(=O)/C(=C/C(=O)c2ccc([N+](=O)[O-])cc2)C1c1ccc(Br)cc1` (stereo not shown) [Compound 86], the IC50 in experiment [1] came to 5.3 µM; in experiment [2] it was 6.2 µM.

In the case of `O=C(/C=C1/C(=O)N(c2ccccc2)C1c1ccc(O)cc1)c1ccc([N+](=O)[O-])cc1` (stereo not shown) [Compound 75], the IC50 was determined as 5.4 µM in experiment [1] and 3.8 µM in experiment [2].

In the case of `O=C(/C=C1/C(=O)N(c2ccccc2)C1c1ccccc1F)c1ccc([N+](=O)[O-])cc1` (stereo not shown) [Compound 81], the IC50 stood at 7 µM in experiment [1] and 5.5 µM in experiment [2].

With `COc1ccccc1CN1C(=O)/C(=C/C(=O)c2ccc([N+](=O)[O-])cc2)C1c1ccccc1` (stereo not shown) [Compound 94], the values for the IC50 in experiment [1] and in experiment [2] were 6.9 µM and 8 µM, respectively.

As for `CC(=O)/C=C1/C(=O)N(Cc2ccccc2Cl)C1c1ccccc1` (stereo not shown) [Compound 54], the values for the IC50 in experiment [1] and in experiment [2] were 15.5 µM and 11.2 µM, respectively.

`CCC(=O)/C=C1/C(=O)N(c2ccccc2)C1c1ccccc1` (stereo not shown) [Compound 2]: the IC50 in experiment [1] worked out at 32 µM; in experiment [2], 28 µM.

Turning to `CCc1ccc(C2/C(=C\C(=O)c3ccc([N+](=O)[O-])cc3)C(=O)N2c2ccccc2C)cc1` (stereo not shown) [Compound 68], the figures for the IC50 in experiment [1] and in experiment [2] were 7.5 µM and 13.6 µM, respectively.
